Test results reported in patent US10774051B2, “6-membered heterocyclic derivatives and pharmaceutical composition comprising the same” (Shionogi & Co., Ltd., priority 2015, dated 2020).
Read-outs that look alike come from different tables or passages of the source.

Target: human P2X7 receptor (Homo sapiens, UniProt Q99572, R270H/Y155H)
Assay: Evaluation of human P2X7 receptor inhibitory activity (Yo-Pro uptake, BzATP stimulation, FLIPR TETRA)
Format: cell-based
Outline: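 Yo-Pro dye uptake triggered by BzATP was monitored by FLIPR in human P2X7-transfected 1321N1 cells (SNP variant) in HEPES-buffered HBSS, pH 7.4-7.5. Compound was dispensed 8 min post-stimulation, then signal read for 20 min; IC50 derived logistically from inhibition of the fluorescence range.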

[1] = antagonistic activity for the human P2X7 receptor, read-out: IC50
[2] = 1321N1 cells stably expressing human P2X7 receptor, BzATP stimulation, Yo-Pro uptake, read-out: IC50 (antagonistic activity for the human P2X7 receptor)

Row | Compound | IC50 [1] [nM] | IC50 [2] [nM]
1 | Cc1cc(C(F)F)ccc1Nc1nc(=O)c(F)cn1Cc1cc(F)c(F)c(F)c1 [Compound I-1237] | < 10 | 
2 | Cc1cc(C)c(Nc2nc(=O)c(F)cn2Cc2cc(F)c(F)c(F)c2)cc1F [Compound I-1238] | < 10 | 
3 | COc1cc(Cl)c(Nc2nc(=O)c(F)cn2Cc2cc(F)c(F)c(F)c2)cc1F [Compound I-1239] | < 10 | 
4 | Cc1ccc(CF)cc1Nc1nc(=O)c(F)cn1Cc1cc(F)cc(F)c1 [Compound I-1240] | < 10 | 
5 | Cc1cc(N(C)C)ccc1Nc1nc(=O)c(F)cn1Cc1cc(F)cc(F)c1 [Compound I-1241] | < 10 | 
6 | Cc1cc(N(C)C)ccc1Nc1nc(=O)c(F)cn1Cc1cc(F)c(F)c(F)c1 [Compound I-1242] | < 10 | 
7 | COc1ccc(Nc2nc(=O)c(F)cn2Cc2cc(F)c(F)c(F)c2)c(OC)c1C [Compound I-1243] | < 10 | 
8 | Cc1cc(F)c(C)c(Nc2nc(=O)c(F)cn2Cc2cc(F)c(F)c(F)c2)c1 [Compound I-1244] | < 10 | 
9 | COc1ccc(Nc2nc(=O)c(F)cn2Cc2cc(F)c(F)c(F)c2)c(C)c1F [Compound I-1245] | < 10 | 
10 | COc1ccc(C)c(Nc2nc(=O)c(CO)nn2Cc2cc(F)c(F)c(F)c2)c1 [Compound I-1246] | < 10 | 
11 | COc1ccc(Nc2nc(=O)c(CO)nn2Cc2cc(F)c(F)c(F)c2)c(C)c1 [Compound I-1247] | < 10 | 
12 | COc1cc(C)c(Nc2nc(=O)c(CF)nn2Cc2cc(F)c(F)c(F)c2)cc1OC [Compound I-1248] | 10 to 100 | 
13 | COc1ccc(C)c(Nc2nc(=O)c(C(=O)O)nn2Cc2cc(F)c(F)c(F)c2)c1 [Compound I-1249] | 10 to 100 | 
14 | COc1ccc(Nc2nc(=O)c(C(=O)O)nn2Cc2cc(F)c(F)c(F)c2)c(C)c1 [Compound I-1250] | 100 to 500 | 
15 | COc1cc(C)c(Nc2nc(=O)c(C(=O)O)nn2Cc2cc(F)c(F)c(F)c2)cc1OC [Compound I-1251] | 10 to 100 | 
16 | CCOC(=O)c1nn(Cc2cc(F)c(F)c(F)c2)c(Nc2cc(OC)c(OC)cc2C)nc1=O [Compound I-1252] | 10 to 100 | 

Row | Compound | IC50 [1] [nM] | IC50 [2] [nM]
17 | Cc1ccc(F)cc1Nc1nc(=O)c(CO)nn1Cc1cc(F)c(F)c(F)c1 [Compound I-1253] | 10 to 100 | 
18 | Cc1ccc(CO)cc1Nc1nc(=O)c(C)nn1Cc1cc(F)c(F)c(F)c1 [Compound I-1254] | < 10 | 
19 | Cc1ccc(CO)cc1Nc1nc(=O)cnn1Cc1cc(F)c(F)c(F)c1 [Compound I-1255] | < 10 | 
20 | COc1cc(C)c(Nc2nc(=O)c(CO)nn2Cc2cc(F)c(F)c(F)c2)cc1OC [Compound I-1256] | 10 to 100 | 
21 | COc1cc(F)c(Nc2nc(=O)c(C)nn2Cc2cc(F)c(F)c(F)c2)cc1OC [Compound I-1257] | 10 to 100 | 
22 | COc1cc(F)c(Nc2nc(=O)cnn2Cc2cc(F)c(F)c(F)c2)cc1OC [Compound I-1258] | < 10 | 
23 | COc1ccc(Nc2nc(=O)c(C)nn2Cc2cc(F)c(F)c(F)c2)c(C)n1 [Compound I-1259] | 10 to 100 | 
24 | Cc1nc2cc(C)c(Nc3nc(=O)c(C)nn3Cc3cc(F)cc(F)c3)cc2s1 [Compound I-1260] | 10 to 100 | 
25 | Cc1nn(Cc2cc(F)c(F)c(F)c2)c(Nc2ccc3[nH]ccc3c2C)nc1=O [Compound I-1262] | < 10 | 
26 | Cc1c(Nc2nc(=O)cnn2Cc2cc(F)c(F)c(F)c2)ccc2[nH]ccc12 [Compound I-1263] |  | 3
27 | COc1cc(C)c(Nc2nc(=O)c(Cl)nn2Cc2cc(F)c(F)c(F)c2)cc1OC [Compound I-1264] | < 10 | 
28 | COc1ccc(Nc2nc(=O)c(Cl)nn2Cc2cc(F)c(F)c(F)c2)c(C)c1 [Compound I-1265] | 10 to 100 | 
29 | COc1cc(C)c(Nc2nc(=O)c(C)nn2Cc2cc(F)c(F)c(F)c2)cc1OC [Compound I-1266] | 10 to 100 | 
30 | Cc1nc2cc(C)c(Nc3nc(=O)c(C)nn3Cc3cc(F)c(F)c(F)c3)cc2s1 [Compound I-1267] |  | 10
31 | COc1ccc(Nc2nc(=O)cnn2Cc2ccc(Cl)c(F)c2)c(C)c1 [Compound I-1268] | 10 to 100 | 
32 | COc1ccc(Nc2nc(=O)cnn2Cc2cc(F)cc(Cl)c2)c(C)c1 [Compound I-1269] | 10 to 100 | 
